Where a SMILES comes first, the peptide text is derived from it.
Test system: heterozygous Shank3-deficient mice
Assay: Social interaction and ultrasonic vocalization, Shank3-deficient mice (Example 13)
Assay type: in vivo, mouse
Conditions: 15 or 60 mg/kg oral b.i.d. 14 days; vs placebo
Method: 1 to 3 month old wild type and heterozygous Shank3-deficient mice are divided into 4 treatment groups: placebo treated wild-type, placebo treated Shank3-deficient group and two Shank3-deficient G-2-MePE treated groups. The animals are given placebo (water) or G-2-MePE formulated in water administered orally, b.i.d for 14 days. G-2-MePE is administered at two doses: 15 or 60 mg/kg.
Behavioral assessments are made at several time points, and include analysis of social interactions and ultrasonic social communication, in line with the methodology described by Bozdagi et al. Briefly, male-female social interactions in each treatment group are evaluated. The subject males are group-housed and individually tested in clean cages with clean litter. Each testing session lasts 5 min. […] Videos from the male subjects are subsequently scored by an investigator uninformed of the subject's genotype and treatment group on measures of nose-to-nose sniffing, nose-to-anogenital sniffing and sniffing of other body regions, using Noldus Observer software (Noldus Information Technology, Leesburg, Va., USA). Ultrasonic vocalizations are identified manually by two highly trained investigators blinded to genotype/treatment group information, and summary statistics are calculated using the Avisoft package. […] Data are analysed using an unpaired Student's t-test.

## C[C@@]1(C(=O)N[C@@H](CCC(=O)O)C(=O)O)CCCN1C(=O)CN [Example G-2-MePE, Glycyl-L-2-methylprolyl-L-glutamic acid] (HELM PEPTIDE1{G.[C[C@@]1(C(=O)[*:2])CCCN1[*:1]].E}$$$$V2.0)
  cumulative duration of total social sniffing: significant increase
  number of ultrasonic vocalizations: increased number of ultrasonic vocalizations

— US20150224164A1, “TREATMENT OF AUTISM SPECTRUM DISORDERS USING GLYCYL-L-2-METHYLPROLYL-L-GLUMATIC ACID” (Neuren Pharmaceuticals Limited, priority 2013, published 2015)
